Earlier results on four compounds are cited in patent US7524881B2, “Production of Δ 9 tetrahydrocannabinol” (Resolution Chemicals Limited, priority 2002, dated 2009).

The conditions of the series: for psychomimetic activity: qualitative background statement.

Consider `C=C(C)[C@@H]1CCC(C)=C[C@H]1c1c(O)cc(CCCCC)cc1O` [Cannabidiol (CBD), cannabidiol], for which the psychomimetic activity result is “little activity”.
Regarding `CCCCCc1cc2c(c(O)c1C(=O)O)[C@@H]1C=C(C)CC[C@H]1C(C)(C)O2` [THCA-A, Δ9-THC carboxylic acid], the psychomimetic activity result is “psychomimetically inactive”.
For the compound `CCCCCc1cc2c(c(O)c1C(=O)O)[C@@H]1C=C(C)CC[C@H]1C(C)(C)O2` [THCA-B, Δ9-THC carboxylic acid], the psychomimetic activity result was “psychomimetically inactive”.
`CCCCCc1cc(O)c2c(c1)OC(C)(C)[C@@H]1CCC(C)=C[C@@H]21` [Δ9-THC, Delta 9 tetrahydrocannabinol]: the “psychomimetic activity relative to Δ8-THC” value (compared with Δ8-THC) is 20 times.
